molecular target: Cathepsin S (Homo sapiens, UniProt P25774); test: Cathepsin S inhibition, fluorogenic peptide substrate kinetic assay; assay type: biochemical; details: Table II; Cathepsin S inhibition constant, pH5.5; read-out: Ki Cat. S
Method in brief: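 Reactions were started with 50 μM (final) acetyl-His-Pro-Val-Lys-aminocarbamoylcoumarin, and hydrolysis was followed by fluorescence (ex 380/em 450 nm). Apparent inhibition constants from enzyme progress curves were converted to Ki for competitive inhibitors using substrate concentration and Km.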

Cathepsin S, sequence (P25774 115-331, species assumed): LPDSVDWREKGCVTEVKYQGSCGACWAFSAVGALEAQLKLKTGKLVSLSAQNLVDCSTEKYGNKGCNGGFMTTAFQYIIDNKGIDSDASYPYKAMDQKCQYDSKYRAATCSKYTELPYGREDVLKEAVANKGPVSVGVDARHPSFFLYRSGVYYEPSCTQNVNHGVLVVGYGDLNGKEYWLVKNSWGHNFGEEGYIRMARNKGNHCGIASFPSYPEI

Compound	Ki [nM]
COc1cccc(C(=O)N[C@@H](CC2CCCCC2)C(=O)N[C@@H](CO)CN2CCc3cc(F)ccc32)c1 [Compound 150, N-{2-Cyclohexyl-1-(S)-[2-(5-fluoro-2,3-dihydro-indol-1-yl)-1-(R)-hydroxymethyl-ethylcarbamoyl]-ethyl}-3-methoxy-benzamide]	< 100
C[C@@H](CNc1ccc(S(C)(=O)=O)cc1)NC(=O)[C@H](CC(C)(C)C)NC(=O)c1ccc(-c2cccc(F)c2)o1 [Compound 129, 5-(3-Fluoro-phenyl)-furan-2-carboxylic acid {1-(S)-[2-(4-methanesulfonyl-phenylamino)-1-(S)-methyl-ethylcarbamoyl]-3,3-dimethyl-butyl}-amide]	< 100
C[C@@H](CNc1cccc(F)c1)NC(=O)[C@H](CC1CCCCC1)NC(=O)c1ccc(-c2cccc(F)c2)o1 [Compound 99, 5-(3-Fluoro-phenyl)-furan-2-carboxylic acid {2-cyclohexyl-1-(S)-[2-(3-fluoro-phenylamino)-1-(S)-methyl-ethylcarbamoyl]-ethyl}-amide]	< 100
C[C@@H](CNc1ccc(OC(F)(F)F)cc1)NC(=O)[C@H](CC1CCCCC1)NC(=O)c1ccc(-c2ccc(F)cc2)o1 [Compound 103, 5-(4-Fluoro-phenyl)-furan-2-carboxylic acid {2-cyclohexyl-1-(S)-[1-(S)-methyl-2-(4-trifluoromethoxy-phenylamino)-ethylcarbamoyl]-ethyl}-amide]	< 100
COc1cccc(C(=O)N[C@@H](CC(C)(C)C)C(=O)N[C@@H](COCc2ccccc2)CN2CCc3cc(F)ccc32)c1 [Compound 155, N-{1-(S)-[1-(R)-Benzyloxymethyl-2-(5-fluoro-2,3-dihydro-indol-1-yl)-ethylcarbamoyl]-3,3-dimethyl-butyl}-3-methoxy-benzamide]	< 100
C[C@@H](CNc1ccc(OC(F)(F)F)cc1)NC(=O)[C@H](CC1CCCCC1)NC(=O)c1ccc(-c2cccc(F)c2)o1 [Compound 83, 5-(3-Fluoro-phenyl)-furan-2-carboxylic acid {2-cyclohexyl-1-(S)-[1-(S)-methyl-2-(4-trifluoromethoxy-phenylamino)-ethylcarbamoyl]-ethyl}-amide]	< 100
COc1ccc(NCCNC(=O)[C@H]2CCCC[C@H]2NC(=O)c2cccc(C)c2)cc1 (relative stereo) [Compound 1, N-{cis-2-[2-(4-Methoxy-phenylamino)-ethylcarbamoyl]-cyclohexyl}-3-methyl-benzamide]	< 10000
C[C@@H](CNc1c(F)cccc1F)NC(=O)[C@H](CC1CCCCC1)NC(=O)c1ccc(-c2cccc(F)c2)o1 [Compound 92, 5-(3-Fluoro-phenyl)-furan-2-carboxylic acid {2-cyclohexyl-1-(S)-[2-(2,6-difluoro-phenylamino)-1-(S)-methyl-ethylcarbamoyl]-ethyl}-amide]	< 100
CNS(=O)(=O)c1ccc(NC[C@H](C)NC(=O)[C@H](CC2CCCCC2)NC(=O)c2ccc(-c3cccc(F)c3)o2)cc1 [Compound 118, 5-(3-Fluoro-phenyl)-furan-2-carboxylic acid {2-cyclohexyl-1-(S)-[1-(S)-methyl-2-(4-methylsulfamoyl-phenylamino)-ethylcarbamoyl]-ethyl}-amide]	< 100
C[C@@H](CNc1ccc(OC(F)(F)F)cc1)NC(=O)[C@H](CC(C)(C)C)NC(=O)c1ccc(-c2cccc(F)c2)o1 [Compound 127, 5-(3-Fluoro-phenyl)-furan-2-carboxylic acid {3,3-dimethyl-1-(S)-[1-(S)-methyl-2-(4-trifluoromethoxy-phenylamino)-ethylcarbamoyl]-butyl}-amide]	< 100
O=C(N[C@@H](CC1CCCCC1)C(=O)NCCN1CCc2cc(F)ccc21)C1CCN(S(=O)(=O)c2ccc(Cl)cc2)CC1 [Compound 17, 1-(4-Chloro-benzenesulfonyl)-piperidine-4-carboxylic acid (S)-{2-cyclohexyl-1-[2-(5-fluoro-2,3-dihydro-indol-1-yl)-ethylcarbamoyl]-ethyl}-amide]	< 1000
Cc1cc(C(=O)N[C@@H](CC2CCCCC2)C(=O)NCCN2CCc3cc(F)ccc32)c(C(F)(F)F)o1 [Compound 78, 5-Methyl-2-trifluoromethyl-furan-3-carboxylic acid (S)-{2-cyclohexyl-1-[2-(5-fluoro-2,3-dihydro-indol-1-yl)-ethylcarbamoyl]-ethyl}-amide]	< 100
Cc1cccc(C(=O)N[C@@H](Cc2ccccc2)C(=O)NC(C)(C)CN2CCc3cc(F)ccc32)c1 [Compound 28, N-{(1S)-[2-(5-Fluoro-2,3-dihydro-indol-1-yl)-1,1-dimethyl-ethylcarbamoyl]-2-phenyl-ethyl}-3-methyl-benzamide]	< 10000
C[C@@H](CNc1ccccc1F)NC(=O)[C@H](CC1CCCCC1)NC(=O)c1ccc(-c2cccc(F)c2)o1 [Compound 95, 5-(3-Fluoro-phenyl)-furan-2-carboxylic acid {2-cyclohexyl-1-(S)-[2-(2-fluoro-phenylamino)-1-(S)-methyl-ethylcarbamoyl]-ethyl}-amide]	< 100
O=C(N[C@@H](CC1CCCCC1)C(=O)NCCN1CCc2cc(F)ccc21)C1CCN(S(=O)(=O)c2ccccc2)CC1 [Compound 58, 1-Benzenesulfonyl-piperidine-4-carboxylic acid (S)-{2-cyclohexyl-1-[2-(5-fluoro-2,3-dihydro-indol-1-yl)-ethylcarbamoyl]-ethyl}-amide]	< 1000
O=C(N[C@@H](CC1CCCCC1)C(=O)NCCN1CCc2cc(F)ccc21)C1CCN(C(=O)c2ccccc2)CC1 [Compound 5, 1-Benzoyl-piperidine-4-carboxylic acid (S)-{2-cyclohexyl-1-[2-(5-fluoro-2,3-dihydro-indol-1-yl)-ethylcarbamoyl]-ethyl}-amide]	< 1000
CC(C(=O)N[C@@H](CC1CCCCC1)C(=O)NCCN1CCc2cc(F)ccc21)c1ccc(-c2ccccc2)c(F)c1 (stereo partly drawn) [Compound 59, N-{2-cyclohexyl-1-(S)-[2-(5-fluoro-2,3-dihydro-indol-1-yl)-ethylcarbamoyl]-ethyl}-2-(2-fluoro-biphenyl-4-yl)-propionamide]	< 100

Continued, values first:

Ki [nM]	Compound
< 100	COc1ccc(-c2ccc(S(=O)(=O)N[C@@H](CC3CCCCC3)C(=O)NCCN3CCc4cc(F)ccc43)cc2)cc1 [Compound 238, (S)-3-Cyclohexyl-N-[2-(5-fluoro-2,3-dihydro-indol-1-yl)-ethyl]-2-(4′-methoxy-biphenyl-4-sulfonylamino)-propionamide]
< 100	C[C@@H](CNc1ccc(OC(F)(F)F)cc1)NC(=O)[C@H](CC1CCCCC1)NC(=O)OC1CCS(=O)(=O)CC1 [Compound 186, (S,S)-{2-Cyclohexyl-1-[1-methyl-2-(4-trifluoromethoxy-phenylamino)-ethylcarbamoyl]-ethyl}-carbamic acid 1,1-dioxo-hexahydro-1λ^6-thiopyran-4-yl ester]
< 100	C[C@@H](CN1CC(C)(C)c2cc(F)ccc21)NC(=O)[C@H](CC1CCCCC1)NC(=O)C1CCOCC1 [Compound 173, Tetrahydropyran-4-carboxylic acid {2-cyclohexyl-1-(S)-[2-(5-fluoro-3,3-dimethyl-2,3-dihydro-indol-1-yl)-1-(S)-methyl-ethylcarbamoyl]-ethyl}-amide]
< 10000	C[C@@H](CN1CC(C)(C)c2cc(F)ccc21)NC(=O)[C@H](CC(C)(C)C)NC(=O)[C@H]1CCCO1 [Compound 271, Tetrahydro-furan-2-(R)-carboxylic acid {1-(S)-[2-(5-fluoro-3,3-dimethyl-2,3-dihydro-indol-1-yl)-1-(S)-methyl-ethylcarbamoyl]-3,3-dimethyl-butyl}-amide]
< 100	Cc1nc(-c2ccc(S(=O)(=O)N[C@@H](CC3CCCCC3)C(=O)NCCN3CCc4cc(F)ccc43)s2)cs1 [Compound 237, (S)-3-Cyclohexyl-N-[2-(5-fluoro-2,3-dihydro-indol-1-yl)-ethyl]-2-[5-(2-methyl-thiazol-4-yl)-thiophene-2-sulfonylamino]-propionamide]
< 1000	Cc1cccc(C(=O)N[C@@H](Cc2ccccc2Cl)C(=O)NCCN2CCc3cc(F)ccc32)c1 [Compound 195, N-((S)-1-(2-(5-fluoroindolin-1-yl)ethylcarbamoyl)-2-(2-chlorophenyl)ethyl)-3-methylbenzamide]
< 100	O=C(NC(C(=O)N[C@@H](CO)CN1CCc2cc(F)ccc21)c1ccc(Cl)cc1Cl)c1ccc(F)c(F)c1 (mixture of isomers) [Compound 208, N-(R,S)-((3-(5-fluoroindolin-1-yl)-1-hydroxypropan-2-(R)-ylcarbamoyl)(2,4-dichlorophenyl)methyl)-3,4-difluorobenzamide]
< 1000	COc1cccc(S(=O)(=O)N[C@@H](CC2CCCCC2)C(=O)NCCN2CCc3cc(F)ccc32)c1 [Compound 245, (S)-3-Cyclohexyl-N-[2-(5-fluoro-2,3-dihydro-indol-1-yl)-ethyl]-2-(3-methoxy-benzenesulfonylamino)-propionamide]
< 1000	C[C@@H](CNc1ccc(OC(F)(F)F)cc1)NC(=O)[C@H](CC(C)(C)C)NC(=O)C1CCOCC1 [Compound 269, Tetrahydropyran-4-carboxylic acid {3,3-dimethyl-1-(S)-[1-(S)-methyl-2-(4-trifluoromethoxy-phenylamino)-ethylcarbamoyl]-butyl}-amide]
< 10000	CS(=O)(=O)N[C@@H](CC1CCCCC1)C(=O)NCCN1CCc2cc(F)ccc21 [Compound 249, (S)-3-Cyclohexyl-N-[2-(5-fluoro-2,3-dihydro-indol-1-yl)-ethyl]-2-methanesulfonylamino-propionamide]
< 1000	C[C@@H](CN1CCc2cc(F)ccc21)NC(=O)[C@H](CC(C)(C)C)NC(=O)Cc1nnn[nH]1 [Compound 179, 4,4-Dimethyl-2-(S)-(2-1H-tetrazol-5-yl-acetylamino)-pentanoic acid [2-(5-fluoro-2,3-dihydro-indol-1-yl)-1-(S)-methyl-ethyl]-amide]
< 100	Cc1cccc(S(=O)(=O)N[C@@H](CC(C)(C)C)C(=O)N[C@@H](CC(=O)O)CN2CCc3cc(F)ccc32)c1 [Compound 262, (S,S)-3-[4,4-Dimethyl-2-(toluene-3-sulfonylamino)-pentanoylamino]-4-(5-fluoro-2,3-dihydro-indol-1-yl)-butyric acid]

From patent US20040248887A1, “Inhibitors of cathepsin S” (IRM LLC, priority 2003, published 2004)
